Test results published in the supplement of paper PMC10627819.

Columns and labels:
[1] = test system: S. pneumoniae D39V; assay: fitness (endpoint OD595 vs no drug) (fraction); higher = more growth; settings: main component drawn
Outline: (§1)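 Background-subtracted growth curves were the basis for fitness, taken as the optical density at entry into stationary phase over the robust mean of no-drug control wells. A cap of 1 was applied. The curves came from OD595 readings every 30 min for 14 h at 37 °C, in 384-well plates seeded at OD595 0.01 with 30 µl, or 55 µl for S. pneumoniae.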

[2] = test system: B. subtilis 168; assay: as above; settings: one replicate, main component drawn
Outline: as §1

[3] = test system: S. pneumoniae D39V; assay: Bliss interaction score (quartile over a dose matrix) (fitness difference); higher = more antagonism (negative = synergy); settings: main component drawn
Outline: (§2)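 Combination data were used to infer fitness under each single drug. Fitness is the OD595 at entry into stationary phase divided by the robust mean of the plate's no-drug wells, with a cap of 1. The Bliss score is the observed minus the expected product fitness, summarised by quartiles over technical, biological and donor/recipient replicates.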

[4] = test system: B. subtilis 168; assay: as above; settings: main component drawn
Outline: as §2

[5] = test system: S. aureus DSM 20231; assay: as above; settings: main component drawn
Outline: as §2

[6] = test system: S. aureus Newman; assay: as above; settings: main component drawn
Outline: as §2
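Throughout, for Bliss interaction score (quartile over a dose matrix): first quartile when negative (synergy) and third quartile when positive (antagonism).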

C[C@H]1COc2c(N3CCN(C)CC3)c(F)cc3c(=O)c(C(=O)O)cn1c23 [Levofloxacin] + CCC(C)C1C(=O)NC(=C)C(=O)NC(C(=O)NC(CSCC(C(=O)N1)NC(=O)/C(=C/C)/NC(=O)C(C(C)CC)N)C(=O)NC2C(SCC(NC(=O)CNC(=O)C3CCCN3C2=O)C(=O)NC(CCCCN)C(=O)NC4C(SCC(NC(=O)CNC(=O)C(NC(=O)C(NC(=O)C(NC(=O)CNC4=O)C)CC(C)C)CCSC)C(=O)NC(CC(=O)N)C(=O)NC(CCSC)C(=O)NC(CCCCN)C(=O)NC5C(SCC6C(=O)NC(C(=O)NC(CSC(C(C(=O)N6)NC(=O)C(NC5=O)C)C)C(=O)NC(CO)C(=O)NC(C(C)CC)C(=O)NC(CC7=CN=CN7)C(=O)NC(C(C)C)C(=O)NC(=C)C(=O)NC(CCCCN)C(=O)O)CC8=CN=CN8)C)C)C)CC(C)C [Nisin]
Settings	fitness
[1], first compound 0.1725 µg/mL, partner 1.6 µg/mL	0.157
[1], first compound 0.1725 µg/mL, partner 3.2 µg/mL	0.0386
[1], first compound 0.1725 µg/mL, partner 6.4 µg/mL	0.0067
[1], first compound 0.2 µg/mL, partner 0.4275 µg/mL	0.906
[1], first compound 0.2 µg/mL, partner 0.855 µg/mL	0.956
[1], first compound 0.2 µg/mL, partner 1.71 µg/mL	0.0809
[1], first compound 0.345 µg/mL, partner 3.2 µg/mL	0.0036
[1], first compound 0.345 µg/mL, partner 6.4 µg/mL	0.0023
[1], first compound 0.4 µg/mL, partner 0.4275 µg/mL	0.844
[1], first compound 0.4 µg/mL, partner 1.71 µg/mL	0.0708
[1], first compound 0.69 µg/mL, partner 1.6 µg/mL	0.0158
[1], first compound 0.69 µg/mL, partner 3.2 µg/mL	0.0153
[1], first compound 0.69 µg/mL, partner 6.4 µg/mL	0.0526
[1], first compound 0.8 µg/mL, partner 0.4275 µg/mL	0.298
[1], first compound 0.8 µg/mL, partner 0.855 µg/mL	0.102
[1], first compound 0.8 µg/mL, partner 1.71 µg/mL	0.0697
[2], first compound 0.001 µg/mL, partner 0.5 µg/mL	0.923
[2], first compound 0.001 µg/mL, partner 1 µg/mL	0.88
[2], first compound 0.001 µg/mL, partner 2 µg/mL	0.778
[2], first compound 0.002 µg/mL, partner 0.5 µg/mL	0.904
[2], first compound 0.002 µg/mL, partner 1 µg/mL	0.871
[2], first compound 0.002 µg/mL, partner 1.25 µg/mL	0.883
[2], first compound 0.002 µg/mL, partner 1.6 µg/mL	0.744
[2], first compound 0.002 µg/mL, partner 2 µg/mL	0.76
[2], first compound 0.002 µg/mL, partner 2.5 µg/mL	0.696
[2], first compound 0.002 µg/mL, partner 3.2 µg/mL	0.0329
[2], first compound 0.002 µg/mL, partner 5 µg/mL	0.0276
[2], first compound 0.002 µg/mL, partner 6.4 µg/mL	0.0319
[2], first compound 0.0039 µg/mL, partner 0.5 µg/mL	0.898
[2], first compound 0.0039 µg/mL, partner 1 µg/mL	0.882
[2], first compound 0.0039 µg/mL, partner 1.25 µg/mL	0.888
[2], first compound 0.0039 µg/mL, partner 1.6 µg/mL	0.734
[2], first compound 0.0039 µg/mL, partner 2 µg/mL	0.747
[2], first compound 0.0039 µg/mL, partner 2.5 µg/mL	0.319
[2], first compound 0.0039 µg/mL, partner 3.2 µg/mL	0.0154
[2], first compound 0.0039 µg/mL, partner 5 µg/mL	0.088
[2], first compound 0.0039 µg/mL, partner 6.4 µg/mL	0.0555
[2], first compound 0.0078 µg/mL, partner 1.25 µg/mL	0.868
[2], first compound 0.0078 µg/mL, partner 1.6 µg/mL	0.701
[2], first compound 0.0078 µg/mL, partner 2.5 µg/mL	0.598
[2], first compound 0.0078 µg/mL, partner 3.2 µg/mL	0.0243
[2], first compound 0.0078 µg/mL, partner 5 µg/mL	0.112
[2], first compound 0.0078 µg/mL, partner 6.4 µg/mL	0.0288
[2], first compound 0.0312 µg/mL, partner 0.5 µg/mL	0.0428
[2], first compound 0.0312 µg/mL, partner 1 µg/mL	0.032
[2], first compound 0.0312 µg/mL, partner 2 µg/mL	0.0482
[2], first compound 0.0312 µg/mL, partner 4 µg/mL	0.0425
[2], first compound 0.0312 µg/mL, partner 8 µg/mL	0.0314
[2], first compound 0.0312 µg/mL, partner 16 µg/mL	0.0291
[2], first compound 0.0625 µg/mL, partner 0.5 µg/mL	0.0426
[2], first compound 0.0625 µg/mL, partner 1 µg/mL	0.0609
[2], first compound 0.0625 µg/mL, partner 2 µg/mL	0.0558
[2], first compound 0.0625 µg/mL, partner 4 µg/mL	0.0381
[2], first compound 0.0625 µg/mL, partner 8 µg/mL	0.0402
[2], first compound 0.0625 µg/mL, partner 16 µg/mL	0.0222
[2], first compound 0.125 µg/mL, partner 0.5 µg/mL	0.0499
[2], first compound 0.125 µg/mL, partner 1 µg/mL	0.0546
[2], first compound 0.125 µg/mL, partner 2 µg/mL	0.0347
[2], first compound 0.125 µg/mL, partner 4 µg/mL	0.0437
[2], first compound 0.125 µg/mL, partner 8 µg/mL	0.0327
[2], first compound 0.125 µg/mL, partner 16 µg/mL	0.0121

Settings	Bliss interaction score
[3]	-0.0976
[4]	0.0523
[5]	0.0616
[6]	-0.0668
